Reference: patent US20250199015A1, “CYCLIN-DEPENDENT KINASE 2 INHIBITORS FOR MEDICAL TREATMENT” (INCYCLIX BIO, LLC, priority 2022, published 2025)
Entries after “also recorded” stand apart in the source; their conditions may differ.

Legend:
[1] = GLP 28-day oral toxicity and toxicokinetics study; format: in vivo, Beagle dogs; conditions: for AUC0-24 / AUC(0-t) / Cmax / Tmax: Beagle, po
Experimental: Nominal dose values and sampling times were used for calculations. Any concentration reported as BLQ (LLOQ<1.0 ng/mL) was set equal to zero. Toxicokinetic analyses included Cmax, Tmax, AUC0-24, t1/2, RA Cmax, and RA AUC0-24. Forty (20 per sex) Beagle dogs were randomly assigned to groups and dosed twice daily (approximately 8 hours+1-hour apart) via oral gavage for 28 consecutive days.
Based on the absence of dose-limiting toxicity, the 28-day highest nonseverely toxic dose (HNSTD) was 250 mg/kg BID (500 mg/kg/day).

[2] = biological target: bile salt export pump (BSEP) (Homo sapiens, UniProt O95342); experiment: Transporter inhibition; format: in vitro ADME
[3] = test system: MMTV-rtTA/tetO-HER2 tumors; experiment: Abemaciclib-resistant HER2-overexpressing breast cancer mouse model; format: in vivo, mice; conditions: Compound I 50 mg/kg BID + abemaciclib 50 mg/kg BID, out to day 38
Experimental: Breast cancer model mice overexpressing HER2 (MMTV-rtTA/tetO-HER2) were treated with abemaciclib until resistance to treatment was observed. […] The test agents were delivered at 5 mL/kg by oral gavage.

γ-H2AX in Hs68 cells = experiment: γ-H2AX flow cytometry in normal fibroblasts; format: cell-based, human; conditions: 300 nM, alone or in combination with cisplatin, 24 hours
Experimental: The Hs68 Normal foreskin fibroblast cell line was grown in DMEM-high glucose/1× Glutamax/10% fetal bovine serum and was plated at 30,000 cells/well in Corning 6 well tissue culture treated plates. Cells were incubated at 37° C. for 24 hours prior to addition of the first treatment. […] Cells were treated to 24 hours post-initial treatment, with 10 μM EdU added at hour 23. Cells were collected and fixed in 1% paraformaldehyde. Cells were incubated with pacific blue azide dye as described by Thermo Scientific. Cells were then incubated with antibody against γ-H2AX at a ratio of 1:50 before incubation with FarRed dye and RNase. Cells were analyzed on a BD Celesta and data compiled using FloJo and GraphPad (FIG. 6).

FUOV-1 cells = experiment: CellTiter-Glo cell proliferation assay; format: cell-based; conditions: Homo sapiens, 144 h; 6 days; read-out: IC50 in FUOV1 cells
Experimental: The Kuramochi human ovarian carcinoma cell line was grown in RPMI-1640/1× Glutamax/10% fetal bovine serum and the FUOV-1 human ovarian carcinoma cell line was grown in DMEM/F12/1× Glutamax/10% fetal bovine serum and both were plated at 1,000 cells/well in Corning 96 well white wall/clear bottom tissue culture treated plates. […] Plates were removed from incubator at each specified timepoint and treated with CellTiter-Glo (Promega, Inc) following manufacturer specifications. Plates were then read on CLARIOstar luminometer with 1 sec/well integration. Results were converted to Microsoft Excel and transferred to GraphPad Prism for Analysis (FIG. 16A-B).

[4] = test system: BALB/c-3T3 mouse fibroblasts; experiment: In vitro 3T3 NRU phototoxicity test; format: cell-based; conditions: UVA 2.5 J/cm^2 vs dark, Neutral Red
Experimental: BALB/c-3T3 mouse fibroblasts (ATCC) were seeded in 96-well plates at 15,000 cells per well, and grown for 24 hr in DMEM supplemented with 10% FBS, 100 U/mL penicillin, and 100 mg/L streptomycin at 37° C., humidified with 5% CO2.
All test articles were solubilized and serially diluted in DMSO, with the exception of histidine, which was solubilized and diluted in HBSS. All DMSO stocks were diluted in HBSS at the final testing concentrations. The final concentration of DMSO for all test articles was 1%. At the start of the assay, the growth medium was removed from the plates and replaced with test article dilutions. Six replicates were used for each concentration and two plates were prepared for each test article. The cells were incubated in the dark at 37° C., humidified with 5% CO2 with test articles for 1 hr. After the 1 hr incubation period, one plate of each test article was exposed to UVA light, 2.5 J/cm^2 over 18 min which is sufficient to induce a phototoxic response, while the second plate was incubated in the dark at room temperature for the same period of time. At the end of this incubation period, both plates were washed with PBS and fresh medium was added to each well. The plates were incubated at 37° C., humidified with 5% CO2 overnight. […] Cellular Neutral Red was measured by its absorbance at 540 nm.

[5] = female, dog, in vivo, 20 mg/kg/day
[6] = female, dog, in vivo, 100 mg/kg/day
[7] = female, dog, in vivo, 500 mg/kg/day
[8] = male, dog, in vivo, 100 mg/kg/day
[9] = male, dog, in vivo, 500 mg/kg/day

Sequence of bile salt export pump (BSEP) (O95342 whole entry): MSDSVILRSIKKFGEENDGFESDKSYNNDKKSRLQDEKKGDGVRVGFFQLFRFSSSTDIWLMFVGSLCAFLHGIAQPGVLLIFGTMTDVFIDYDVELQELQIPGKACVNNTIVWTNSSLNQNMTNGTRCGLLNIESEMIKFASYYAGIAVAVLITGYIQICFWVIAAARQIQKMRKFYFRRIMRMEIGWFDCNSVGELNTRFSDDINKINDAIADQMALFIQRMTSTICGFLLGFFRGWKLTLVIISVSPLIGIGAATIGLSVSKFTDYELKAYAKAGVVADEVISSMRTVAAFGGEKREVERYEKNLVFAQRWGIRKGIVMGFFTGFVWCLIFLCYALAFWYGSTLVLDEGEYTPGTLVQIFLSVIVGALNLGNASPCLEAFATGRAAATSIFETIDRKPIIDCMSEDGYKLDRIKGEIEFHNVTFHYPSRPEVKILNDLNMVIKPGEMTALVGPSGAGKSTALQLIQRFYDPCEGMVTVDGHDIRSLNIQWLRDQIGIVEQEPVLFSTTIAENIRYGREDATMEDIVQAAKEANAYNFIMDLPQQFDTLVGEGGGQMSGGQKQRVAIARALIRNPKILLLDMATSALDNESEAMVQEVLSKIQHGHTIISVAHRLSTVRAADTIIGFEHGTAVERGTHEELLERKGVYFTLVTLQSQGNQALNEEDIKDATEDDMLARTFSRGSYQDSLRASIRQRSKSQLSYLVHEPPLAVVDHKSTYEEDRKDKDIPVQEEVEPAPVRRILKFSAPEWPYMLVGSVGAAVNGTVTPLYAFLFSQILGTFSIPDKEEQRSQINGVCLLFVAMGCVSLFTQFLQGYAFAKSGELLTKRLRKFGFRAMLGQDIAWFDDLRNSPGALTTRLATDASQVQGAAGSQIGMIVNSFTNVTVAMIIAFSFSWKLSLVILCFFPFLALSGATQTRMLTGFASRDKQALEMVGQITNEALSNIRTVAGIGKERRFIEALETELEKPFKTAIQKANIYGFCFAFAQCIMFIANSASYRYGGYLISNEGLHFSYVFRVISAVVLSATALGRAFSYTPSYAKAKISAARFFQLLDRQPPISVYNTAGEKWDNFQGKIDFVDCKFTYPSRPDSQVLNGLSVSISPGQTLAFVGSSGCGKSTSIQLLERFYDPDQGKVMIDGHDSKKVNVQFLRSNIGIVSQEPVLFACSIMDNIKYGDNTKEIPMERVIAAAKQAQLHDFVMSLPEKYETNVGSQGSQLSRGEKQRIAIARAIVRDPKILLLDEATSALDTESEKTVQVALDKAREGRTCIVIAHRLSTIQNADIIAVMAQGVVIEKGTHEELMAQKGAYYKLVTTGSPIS

In the case of `NS(=O)(=O)c1ccc(Nc2ncc3cc4n(c3n2)C2(CCCCC2)C(=O)NN4)cc1` [Compound I], the tolerability ([1]; PO, up to 28 days, up to 250 mg/kg BID) is reported as “generally well tolerated; also recorded: well tolerated with no dose-limiting toxicities observed”, the “28-day NOAEL” value ([1]; dog, in vivo) is reported as “did not identify a 28-day NOAEL” and the “accumulation after 28 days of BID dosing” value ([1]; dog, in vivo) is reported as “Modest accumulation”. The bone marrow cellularity ([1]; dog, in vivo) was “moderately decreased bone marrow cellularity”, the AUC0-24 [1, 5] was 1680 ng·h/mL and the AUC(0-t) ([1]; female, dog, in vivo, 20 mg/kg/day, AUC0-24) was 2600 ng·h/mL. The Cmax ([1]; female, dog, in vivo, 20 mg/kg/day, Cmax) was 267 ng/mL, the Tmax [1, 5] was 8.8 h and the AUC0-24 [1, 6] was 5170 ng·h/mL. It also gave an AUC(0-t) ([1]; female, dog, in vivo, 100 mg/kg/day, AUC0-24) of 9160 ng·h/mL, a Cmax ([1]; female, dog, in vivo, 100 mg/kg/day, Cmax) of 725 ng/mL and a Tmax [1, 6] of 10 h. It also gave an AUC(0-t) ([1]; female, dog, in vivo, 250 mg/kg, plasma AUC0-24) of 11700 ng·h/mL, a Cmax ([1]; female, dog, in vivo, 250 mg/kg, plasma Cmax) of 961 ng/mL and an AUC0-24 [1, 7] of 11700 ng·h/mL. It also gave an AUC(0-t) ([1]; female, dog, in vivo, 500 mg/kg/day, AUC0-24) of 10100 ng·h/mL, a Cmax ([1]; female, dog, in vivo, 500 mg/kg/day, Cmax) of 919 ng/mL and a Tmax [1, 7] of 14 h. For the same compound, the AUC(0-t) ([1]; female, dog, in vivo, plasma AUC0-24) was 2600 ng·h/mL, the Cmax ([1]; female, dog, in vivo, plasma Cmax) was 267 ng/mL and the AUC0-24 ([1]; male, dog, in vivo, 20 mg/kg/day) was 1430 ng·h/mL. The AUC(0-t) ([1]; male, dog, in vivo, 20 mg/kg/day, AUC0-24) was 2460 ng·h/mL, the AUC0-24 [1, 8] was 10600 ng·h/mL and the AUC(0-t) ([1]; male, dog, in vivo, 100 mg/kg/day, AUC0-24) was 6210 ng·h/mL. It also gave a Cmax ([1]; male, dog, in vivo, 100 mg/kg/day, Cmax) of 459 ng/mL, a Tmax [1, 8] of 12 h and an AUC(0-t) ([1]; male, dog, in vivo, 250 mg/kg, plasma AUC0-24) of 18800 ng·h/mL. The Cmax ([1]; male, dog, in vivo, 250 mg/kg, plasma Cmax) was 1500 ng/mL, the AUC0-24 [1, 9] was 18800 ng·h/mL and the AUC(0-t) ([1]; male, dog, in vivo, 500 mg/kg/day, AUC0-24) was 13300 ng·h/mL. It also gave a Cmax ([1]; male, dog, in vivo, 500 mg/kg/day, Cmax) of 1220 ng/mL, a Tmax [1, 9] of 14 h and an AUC(0-t) ([1]; male, dog, in vivo, plasma AUC0-24) of 2460 ng·h/mL. For the same compound, the Cmax ([1]; male, dog, in vivo, plasma Cmax) was 307 ng/mL, the BSEP inhibition [2] was “did not inhibit” and the tumor growth [3] was “substantially reduced tumor growth relative to either agent administered alone”. For the same compound, the “percent of γ-H2AX-positive cells” value (γ-H2AX in Hs68 cells) was “lower percent of γ-H2AX-positive cells compared with control”, the IC50 (FUOV-1 cells) was 16 nM and the phototoxicity [4] was “negative for causing phototoxicity”.
